Data as given in patent EP4660190A1, “PHARMACEUTICALLY ACCEPTABLE SALT OF COMPOUND AND PREPARATION METHOD THEREFOR” (Jiangsu Chia Tai Fenghai Pharmaceutical Co., Ltd., priority 2023, dated 2024).

Experiments:
[1] = tested on: TDP-43-A315T transgenic mice of ALS model; assay: TDP-43-A315T ALS mice, rotarod test; format: in vivo; conditions: Mean±SEM
[2] = tested on: MPTP-induced Parkinson's disease model mice; assay: MPTP-induced mouse Parkinson's disease model, TH-positive fiber content in the striatum; format: in vivo, C57 mice; conditions: four weeks, mean ± SD
[3] = tested on: MPTP-induced Parkinson's disease model mice; assay: MPTP-induced mouse Parkinson's disease model, TH-positive cell counts in the substantia nigra pars compacta; format: in vivo, C57 mice; conditions: four weeks, mean ± SD
[4] = tested on: Middle cerebral artery occlusion (MCAO) models of SD rats; assay: Rat MCAO model, 7 daily doses, neurobehavioral scoring (Bederson, NSS); format: in vivo; conditions: rat, in vivo
Excerpt: Middle cerebral artery occlusion (MCAO) models of SD rats were constructed using the suture occlusion method to evaluate the neuroprotective effect of the compound on neurons of rats after cerebral ischemia-reperfusion. […] The ECA was ligated. The ICA was temporarily occluded. Sutures were threaded at both the proximal end and the distal end of CCA. The distal end was securely ligated, and a loosely tied knot was placed at the proximal end. A small incision was made on the CCA between these two sutures. […] The threading was halted temporarily when reaching the artery clamp of ICA. The pre-ligation suture was further tightened. The artery clamp blocking the blood flow in the ICA was removed, allowing the suture occlusion to be advanced into the ICA until it entered the intracranial region. […] The insertion was stopped at the moment, and the time was recorded. The artery clamp on the CCA was removed and the incision was closed after no active bleeding was observed. The ischemic rats were placed at room temperature to keep their body temperature at 37°C, and anesthesia induction could be carried out 120min later. The suture was slowly and gradually withdrawn when the rats were maintained under anesthesia, so that the proximal end of the suture returned to the ECA, thereby initiating reperfusion of the middle cerebral artery. […] A single dose was administered immediately after reperfusion (within 10 minutes), followed by one dose per day for a total of 7 consecutive doses (including the first dose). Except for the initial administration, all subsequent doses were given between 4:00 PM and 7:00 PM each day. […] Animals were euthanized 7 days after ischemia reperfusion, and the brains were rapidly taken, frozen, and dissected for TTC staining. The normal tissues were rose-red after staining, and the infarcted tissues were white. The infarct size (%) percentage, calculated as the weight of infarcted tissues to the weight of the whole brain, is used to evaluate the degree of cerebral ischemic injury in rats. […] Table 12 Cerebral infarct size and cerebral infarction inhibition rate of experimental animals (2) Neurobehavioral scoring: […] Table 13: Results of Neurobehavioral Scores in Animals

[5] = high dose 20 mg/kg daily, listed as Tromethamine salt from Example 10, 20 mg/kg
[6] = high dose 20 mg/kg daily, listed as tromethamine salt from Example 10, 20 mg/kg
[7] = low dose 5 mg/kg daily, listed as Tromethamine salt from Example 10, 5 mg/kg
[8] = low dose 5 mg/kg daily, listed as tromethamine salt from Example 10, 5 mg/kg

Substance: (Z)-3-(1-hydroxybutenyl)benzofuran-2-one tromethamine salt [Example 10]
- Rotarod performance ([1]; female mice, 20mg/kg, Dosing Schedule (weeks) 2): 287.0 ± 8.449 s
- Rotarod performance ([1]; female mice, 20mg/kg, Dosing Schedule (weeks) 4): 288.6 ± 7.796 s
- Rotarod performance ([1]; female mice, 20mg/kg, Dosing Schedule (weeks) 6): 285.4 ± 6.626 s
- Rotarod performance ([1]; female mice, 20mg/kg, Dosing Schedule (weeks) 8): 266.3 ± 14.55 s
- Rotarod performance ([1]; female mice, 20mg/kg, Dosing Schedule (weeks) 10): 254.2 ± 12.62 s
- Rotarod performance ([1]; female mice, 20mg/kg, Dosing Schedule (weeks) 12): 266.2 ± 14.94 s
- Rotarod performance ([1]; female mice, 20mg/kg, Dosing Schedule (weeks) 14): 272.3 ± 10.62 s
- Rotarod performance ([1]; female mice, 20mg/kg, Dosing Schedule (weeks) 16): 267.8 ± 16.51 s
- Rotarod performance ([1]; female mice, 40mg/kg p.o., Dosing Schedule (weeks) 2): 273.6 ± 12.14 s
- Rotarod performance ([1]; female mice, 40mg/kg p.o., Dosing Schedule (weeks) 4): 271.4 ± 10.22 s
- Rotarod performance ([1]; female mice, 40mg/kg p.o., Dosing Schedule (weeks) 6): 269.5 ± 8.270 s
- Rotarod performance ([1]; female mice, 40mg/kg p.o., Dosing Schedule (weeks) 8): 275.6 ± 9.651 s
- Rotarod performance ([1]; female mice, 40mg/kg p.o., Dosing Schedule (weeks) 10): 260.6 ± 12.34 s
- Rotarod performance ([1]; female mice, 40mg/kg p.o., Dosing Schedule (weeks) 12): 270.6 ± 9.446 s
- Rotarod performance ([1]; female mice, 40mg/kg p.o., Dosing Schedule (weeks) 14): 256.3 ± 10.00 s
- Rotarod performance ([1]; female mice, 40mg/kg p.o., Dosing Schedule (weeks) 16): 236.5 ± 15.50 s
- Rotarod performance ([1]; male mice, 40mg/kg p.o., Dosing Schedule (weeks) 6): 272.9 ± 7.148 s
- Rotarod performance ([1]; male mice, 40mg/kg p.o., Dosing Schedule (weeks) 8): 267.5 ± 9.357 s
- Rotarod performance ([1]; male mice, 40mg/kg p.o., Dosing Schedule (weeks) 10): 275.8 ± 10.38 s
- Rotarod performance ([1]; male mice, 40mg/kg p.o., Dosing Schedule (weeks) 11): 224.3 ± 26.08 s
- Rotarod performance ([1]; male mice, 40mg/kg p.o., Dosing Schedule (weeks) 12): 182.1 ± 40.34 s
- Rotarod performance ([1]; male mice, 40mg/kg p.o., Dosing Schedule (weeks) 13): 154.2 ± 30.27 s
- Rotarod performance ([1]; male mice, 60mg/kg p.o., Dosing Schedule (weeks) 6): 295.6 ± 3.322 s
- Rotarod performance ([1]; male mice, 60mg/kg p.o., Dosing Schedule (weeks) 8): 275.1 ± 11.91 s
- Rotarod performance ([1]; male mice, 60mg/kg p.o., Dosing Schedule (weeks) 10): 267.3 ± 10.94 s
- Rotarod performance ([1]; male mice, 60mg/kg p.o., Dosing Schedule (weeks) 11): 263.0 ± 12.54 s
- Rotarod performance ([1]; male mice, 60mg/kg p.o., Dosing Schedule (weeks) 12): 266.3 ± 17.99 s
- Rotarod performance ([1]; male mice, 60mg/kg p.o., Dosing Schedule (weeks) 13): 209.0 ± 31.68 s
- TH-Positive Fiber Content [2, 5]: 709627.56±100462.19^&#
- TH-Positive Fiber Content [2, 6]: 709,627.56±100,462.19
- TH-Positive Fiber Content [2, 7]: 526554.39±169680.75^&
- TH-Positive Fiber Content [2, 8]: 526,554.39±169,680.75
- TH-Positive Cell counts [3, 5]: 42.42±4.36^&#
- TH-Positive Cell counts [3, 6]: 42.42±4.36
- TH-Positive Cell counts [3, 7]: 31.22±5.97^&
- TH-Positive Cell counts [3, 8]: 31.22±5.97
- Bederson [4]: 3.00± 0.00
